Experimental data as given in patent publication US11464770B2, “Anticancer pharmaceutical composition” (NATIONAL CANCER CENTER, priority 2016, dated 2022).
Where two headings read alike, the source gives them in different places.

Experiments:
[1] = test system: bladder cancer cell lines; assay: Cell based assay, cell viability (CellTiter-Glo), bladder cancer cell lines; settings: 72 hours treatment, 0 to 2 μM, CellTiter-Glo
Method in brief: (§1)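 Trypsin-EDTA-detached lines seeded; 24 h later compound added (final 0–2 μM); 72 h exposure; ATP luminescence viability readout.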

[2] = test system: blood cancer cell lines (e.g. HL-60, Jurkat, Raji, Ramos, Daudi, MOLT-4); assay: Cell based assay, cell viability (CellTiter-Glo), blood cancer cell lines; settings: Homo sapiens
Method in brief: as §1

[3] = 253J cells, read-out: IC50, bladder cancer cell line 253J
[4] = 5637 cells, read-out: IC50, bladder cancer cell line 5637
[5] = Homo sapiens, T-24, T24 cells, read-out: IC50, bladder cancer cell line T24
[6] = Homo sapiens, J82 cells, read-out: IC50, bladder cancer cell line J82
[7] = MV4-11, blood cancer cell line MV-4-11, 72 hours, read-out: IC50, MV-4-11
[8] = blood cancer cell line Daudi, 72 hours, read-out: IC50, Daudi
[9] = blood cancer cell line HL-60, 72 hours, read-out: IC50, HL-60
[10] = blood cancer cell line Jurkat, 72 hours, read-out: IC50, Jurkat
[11] = blood cancer cell line MOLT-4, 72 hours, read-out: IC50, MOLT-4
[12] = blood cancer cell line Raji, 72 hours, read-out: IC50, Raji
[13] = blood cancer cell line Ramos (RA 1), 72 hours, read-out: IC50, Ramos (RA 1)
[14] = blood cancer cell line U-937, 72 hours, read-out: IC50, U-937
[15] = Homo sapiens, UMUC3, UM-UC-3 cells, read-out: IC50, bladder cancer cell line UM-UC-3
[16] = Homo sapiens, KU-19-19 cells, read-out: IC50, bladder cancer cell line KU-19-19
[17] = MBT-2 cells, read-out: IC50, bladder cancer cell line MBT-2

Row | SMILES | IC50 [1, 3] | IC50 [1, 4] | IC50 [1, 5] | IC50 [1, 6] | IC50 [2, 7] | IC50 [2, 8] | IC50 [2, 9] | IC50 [2, 10] | IC50 [2, 11] | IC50 [2, 12] | IC50 [2, 13] | IC50 [2, 14] | IC50 [1, 15] | IC50 [1, 16] | IC50 [1, 17]
1 | CSc1[nH]c2c(Br)ccc(Cl)c2c(=O)c1C(C)=O [Compound 2, 3-acetyl-8-bromo-5-chloro-2-(methylthio)quinolin-4(1H)-one] | > 2000 nM | > 2000 nM | > 2000 nM | > 2000 nM | > 2000 nM | > 2000 nM | > 2000 nM | > 2000 nM | > 2000 nM | > 2000 nM | > 2000 nM | > 2000 nM | > 2000 nM | > 2000 nM | > 2000 nM
2 | CSc1c(C(C)=O)c(=O)c2c(Cl)ccc(Br)c2n1C [Compound 5, 3-acetyl-8-bromo-5-chloro-1-methyl-2-(methylthio)quinolin-4(1H)-one] | > 2000 nM | > 2000 nM | > 2000 nM | > 2000 nM | > 2000 nM | > 2000 nM | > 2000 nM | > 2000 nM | > 2000 nM | > 2000 nM | > 2000 nM | > 2000 nM | > 2000 nM | > 2000 nM | > 2000 nM

Continued, values first:

Row | IC50 [1, 3] | IC50 [1, 4] | IC50 [1, 5] | IC50 [1, 6] | IC50 [2, 7] | IC50 [2, 8] | IC50 [2, 9] | IC50 [2, 10] | IC50 [2, 11] | IC50 [2, 12] | IC50 [2, 13] | IC50 [2, 14] | IC50 [1, 15] | IC50 [1, 16] | IC50 [1, 17] | SMILES
3 | > 2000 nM | > 2000 nM | > 2000 nM | > 2000 nM | > 2000 nM | > 2000 nM | > 2000 nM | > 2000 nM | > 2000 nM | > 2000 nM | > 2000 nM | > 2000 nM |  |  |  | CC(=O)c1c([S+]([O-])Cc2nonc2C)[nH]c2c(Br)ccc(Cl)c2c1=O (stereo not drawn) [Compound 106, 3-acetyl-8-bromo-5-chloro-2-(((4-methyl-1,2,5-oxadiazol-3-yl)methyl)sulfinyl)quinolin-4(1H)-one]
4 | 970 nM | 1460 nM | 1470 nM | 1490 nM | 1300 nM | 1210 nM | 1710 nM | 1000 nM | 1070 nM | 1020 nM | 1660 nM | > 2000 nM | 1110 nM | 1250 nM | 1070 nM | CC(=O)c1c([S+]([O-])Cc2ccc(S(F)(F)(F)(F)F)cc2)[nH]c2c(Br)ccc(Cl)c2c1=O (stereo not drawn) [Compound 68, 3-acetyl-8-bromo-5-chloro-2-((4-(pentafluoro-16-sulfanyl)benzyl)sulfinyl)quinolin-4(1H)-one]
5 | > 2000 nM | > 2000 nM | > 2000 nM | > 2000 nM | > 2000 nM | > 2000 nM | > 2000 nM | > 2000 nM | > 2000 nM | > 2000 nM | > 2000 nM | > 2000 nM |  |  |  | CC(=O)c1c([S+]([O-])c2ccc(Br)cc2)[nH]c2c(Br)ccc(Cl)c2c1=O (stereo not drawn) [Compound 17, 3-acetyl-8-bromo-2-((4-bromophenyl)sulfinyl)-5-chloroquinolin-4(1H)-one]
